Here are results for two compounds from patent publication US11407825B2, “NaPi2b-targeted polymer antibody-drug conjugates and methods of use thereof” (Mersana Therapeutics, Inc., priority 2018, dated 2022).

The data set is described as follows: Plasma PK profile in patients dosed with XMT-1536. The settings on record: after XMT-1536. It counts as in vivo, human. How it is done:
The PK profile of the active ingredient of XMT-1536, its release product and selected metabolites are determined for each patient by non-compartmental analysis using standard PK software (e.g., Phoenix WinNonlin). PK parameters per patient include time of maximum observed concentration (tmax), maximum concentration (Cmax), and area under the concentration curve for the last measurable concentration (AUC0-last). When the terminal elimination phase is identified, additional parameters such as elimination half-life, clearance, and volume of distribution are determined.
The plasma PK profile for the analytes (total antibody; conjugated drug (AF-HPA); free drug (AF-HPA) and the drug metabolite auristatin F (AF)) was determined in blood samples from 30 patients (3 mg/m^2, n=1; 6 mg/m^2, n=1; 12 mg/m^2, n=7; 20 mg/m^2, n=15; 30 mg/m^2, n=5; 40 mg/m^2, n=1). […] The PK characteristics is consistent with that reported for other approved antibody-drug conjugates or those currently in clinical development.

The structures appear in SMILES notation. Square brackets hold non-standard residues; d marks the D form. Peptide text beside a SMILES is read from it. * marks the point of attachment. Dolaproine = CO[C@@H]([C@@H]1CCCN1)[C@@H](C)C(=O)O; Dil = CC[C@H](C)[C@H](NC)[C@@H](CC(=O)O)OC; NMe2Val = CC(C)[C@@H](C(=O)*)N(C)C; NH(3-hydroxypropyl) = OCCCN*

Consider `CC[C@H](C)[C@@H]([C@@H](CC(=O)N1CCC[C@H]1[C@H](OC)[C@@H](C)C(=O)N[C@@H](Cc1ccccc1)C(=O)O)OC)N(C)C(=O)[C@@H](NC(=O)[C@H](C(C)C)N(C)C)C(C)C` [AF, auristatin F] (NMe2Val-V[Dil][Dolaproine]F-OH), for which the “accumulation after administration of multiple doses” value is recorded as “no accumulation” and the “systemic exposure compared to that of the conjugated drug” value is reported as “low systemic expose”.

For the compound `CC[C@H](C)[C@@H]([C@@H](CC(=O)N1CCC[C@H]1[C@H](OC)[C@@H](C)C(=O)N[C@@H](Cc1ccccc1)C(=O)NCCCO)OC)N(C)C(=O)[C@@H](NC(=O)[C@H](C(C)C)N(C)C)C(C)C` [AF-HPA, Auristatin F-hydroxypropyl amide] (NMe2Val-V[Dil][Dolaproine]F-{NH(3-hydroxypropyl)}), the “accumulation after administration of multiple doses” value is recorded as “no accumulation” and the “systemic exposure compared to that of the conjugated drug” value is given as “low systemic expose”.
